Assay results as given in ChEMBL document CHEMBL4342415, “Inhibition of the Cytolytic Protein Perforin Prevents Rejection of Transplanted Bone Marrow Stem Cells in Vivo” (J Med Chem, 2020).
Calls of active or inactive are those of the source. No cut-off for these calls is given here.

Legend:
[1] = biological target: T1, Perforin-1 (Homo sapiens) (UniProt P14222); experiment: Inhibition of perforin in human KHYG-1 cells pre-treated with compound for 20 mins assessed as reduction in KHYG-1 cells-mediated cell lysis of human K562 cells at 20 uM measured after 4 hrs by 51Cr release based gamma counting method
T1 sequence (whole entry): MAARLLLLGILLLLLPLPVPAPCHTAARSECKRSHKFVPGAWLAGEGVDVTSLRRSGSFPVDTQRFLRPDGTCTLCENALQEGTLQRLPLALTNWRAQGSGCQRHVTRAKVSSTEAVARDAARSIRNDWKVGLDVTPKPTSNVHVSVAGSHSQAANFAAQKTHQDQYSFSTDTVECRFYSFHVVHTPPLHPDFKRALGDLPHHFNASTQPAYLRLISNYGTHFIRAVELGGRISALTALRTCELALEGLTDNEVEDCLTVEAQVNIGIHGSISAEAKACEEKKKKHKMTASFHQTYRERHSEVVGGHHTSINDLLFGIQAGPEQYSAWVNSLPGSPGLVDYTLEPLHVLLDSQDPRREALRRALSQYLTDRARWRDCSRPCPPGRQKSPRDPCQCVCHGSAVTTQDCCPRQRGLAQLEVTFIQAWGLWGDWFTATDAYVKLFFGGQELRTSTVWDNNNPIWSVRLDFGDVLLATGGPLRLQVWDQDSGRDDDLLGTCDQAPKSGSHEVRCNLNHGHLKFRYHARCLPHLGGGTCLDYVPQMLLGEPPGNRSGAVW

[2] = Toxicity in human KHYG-1 cells assessed as cell viability at 10 uM after 24 h by trypan blue exclusion assay relative to control; type: cell-based; details: read-out: Activity
[3] = Protein binding in CD1 mouse plasma at 10 uM incubated for 6 hrs by LC-MS/MS analysis and equilibrium dialysis; type: ADME, cell-free; details: read-out: PPB (converted)
[4] = Half life in CD1 mouse at 150 mg/kg, ip measured during 15 mins to 24 hrs by LC-MS/MS analysis; type: ADME, organism-based; details: in vivo
[5] = Cmax in CD1 mouse at 150 mg/kg, ip measured during 15 mins to 24 hrs by LC-MS/MS analysis; type: ADME, organism-based; set-up: dose 150 mg/kg, route intraperitoneal; details: in vivo
[6] = AUC (0 to infinity) in CD1 mouse at 150 mg/kg, ip measured during 15 mins to 24 hrs by LC-MS/MS analysis; type: ADME, organism-based; set-up: dose 150 mg/kg, time infinity, route intraperitoneal; details: in vivo
[7] = Solubility in water by HPLC analysis; type: physicochemical
[8] = Stability in CD1 mouse liver microsomes assessed as parent compound remaining level at 3 uM pre-incubated for 30 mins before NADPH addition by LC-MS/MS analysis; type: ADME, Microsome; details: read-out: Stability
[9] = Stability in Sprague-Dawley rat liver microsomes assessed as parent compound remaining level at 3 uM pre-incubated for 30 mins before NADPH addition by LC-MS/MS analysis; type: ADME, Microsome; details: read-out: Stability
[10] = Stability in human liver microsomes assessed as parent compound remaining level at 3 uM pre-incubated for 30 mins before NADPH addition by LC-MS/MS analysis; type: ADME, Microsome; details: read-out: Stability
[11] = Stability Milli-Q water at 10 uM incubated for 24 hrs by LC-MS/MS analysis; type: physicochemical; details: read-out: Stability
[12] = Half life in CD1 mouse at 90 mg/kg, ip measured during 15 mins to 24 hrs by LC-MS/MS analysis; type: ADME, organism-based; details: in vivo
[13] = Cmax in CD1 mouse at 90 mg/kg, ip measured during 15 mins to 24 hrs by LC-MS/MS analysis; type: ADME, organism-based; set-up: dose 90 mg/kg, route intraperitoneal; details: in vivo
[14] = AUC (0 to infinity) in CD1 mouse at 90 mg/kg, ip measured during 15 mins to 24 hrs by LC-MS/MS analysis; type: ADME, organism-based; set-up: dose 90 mg/kg, route intraperitoneal, time infinity; details: in vivo
[15] = Unbound fraction in human KHYG-1 cell media; type: ADME
[16] = Time at which unbound plasma concentration stays above IC50 in C57BL/6 mouse at 90 mg/kg, ip; type: ADME, organism-based; details: in vivo
[17] = test system: Mus musculus; experiment: (§1) Suppression of bone marrow transplant rejection in B6 mouse model of bone marrow transplantation receiving both allogeneic MHC- mismatched BALB/c stem cells and syngeneic MHC-matched B6 stem cells assessed as reduction in perforin-dependent NK cell-mediated graft rejection in peripheral blood at 125 mg/kg, ip dosed immediately prior to cell transfer and 18 hrs after cell transfer and measured after 24 hrs relative to control; type: functional; set-up: scale not given: the % may be the effect or the level left
[18] = Toxicity in B6 mouse model of bone marrow transplantation receiving both allogeneic MHC- mismatched BALB/c stem cells and syngeneic MHC-matched B6 stem cells assessed as drug tolerability at 125 mg/kg, ip dosed immediately prior to cell transfer and 18 hrs after cell transfer and measured after 24 hrs relative to control; type: organism-based; details: in vivo
[19] = test system: Mus musculus; experiment: as §1, with “spleen” for “peripheral blood”; type: functional; set-up: scale not given: the % may be the effect or the level left
[20] = Half life in CD1 mouse at 75 mg/kg, ip measured during 15 mins to 24 hrs by LC-MS/MS analysis; type: ADME, organism-based; details: in vivo
[21] = Cmax in CD1 mouse at 75 mg/kg, ip measured during 15 mins to 24 hrs by LC-MS/MS analysis; type: ADME, organism-based; set-up: dose 75 mg/kg, route intraperitoneal; details: in vivo
[22] = AUC (0 to infinity) in CD1 mouse at 75 mg/kg, ip measured during 15 mins to 24 hrs by LC-MS/MS analysis; type: ADME, organism-based; set-up: dose 75 mg/kg, route intraperitoneal, time infinity; details: in vivo

In the case of `O=C1c2ccc(-c3ccc(-c4cncc(NS(=O)(=O)c5ccc(F)cc5F)c4)s3)cc2CN1CCN1CCCC1`, the inhibition [1] is reported as “inactive”.

`COc1ncc(-c2ccc(-c3cnc4c(c3)CN(C)C4=O)s2)cc1NS(=O)(=O)c1ccccc1C(F)(F)F` gave a viability at 24 h, 10 µM [2] of 95.8%.

With `O=C1c2ccc(-c3ccc(-c4cncc(NS(=O)(=O)c5ccc(F)cc5F)c4)s3)cc2CN1CC(O)CO` (configuration not stated) the inhibition [1] was “inactive”.

Molecule `O=C1NCc2ncc(-c3ccc(-c4cncc(NS(=O)(=O)c5ccc(F)cc5F)c4)s3)cc21` [listing 1 of 2 here] has an inhibition [1] of 40%.

Work on `O=C1NCc2ncc(-c3ccc(-c4cncc(NS(=O)(=O)c5ccc(F)cc5F)c4)s3)cc21` [listing 2 of 2 here] yielded a viability at 24 h, 10 µM [2] of 100%, a fraction unbound at 6 h, 10 µM [3] of 0.0011 and a half-life [4] of 5.5 h. The Cmax [5] was 1320 µM and the AUC(0-inf) [6] was 7670 µM·h.

For `CN(C)CCN1Cc2cc(-c3ccc(-c4cncc(NS(=O)(=O)c5ccc(F)cc5F)c4)s3)ccc2C1=O`, the inhibition [1] was “inactive”.

`CN1Cc2cc(-c3ccc(-c4cncc([N-]S(=O)(=O)c5ccc(F)cc5F)c4)s3)cnc2C1=O.[Na+]` gave a solubility [7] of 20300 µg/mL, a remaining at 3 µM [8] of 100% and a remaining at 3 µM [9] of 100%. For the same molecule, the remaining at 3 µM [10] was 80% and the remaining at 24 h, 10 µM [11] was 100%.

For `COc1ncc(-c2ccc(-c3cnc4c(c3)CN(C)C4=O)s2)cc1NS(=O)(=O)c1ccc(F)cc1F`, the viability at 24 h, 10 µM [2] was 90.6%, the fraction unbound at 6 h, 10 µM [3] was 0.0009 and the half-life [12] was 18.9 h. For the same molecule, the Cmax [13] was 1310 µM, the AUC(0-inf) [14] was 42500 µM·h and the fraction unbound [15] was 0.255. For the same molecule, the Time [16] was 5 to 6 h, the Activity [17] was 66% and the Activity [18] was “Non-Toxic”. For the same molecule, the Activity [19] was 66%.

Work on `CN1Cc2cc(-c3ccc(-c4cncc([N-]S(=O)(=O)c5cccc(C(F)(F)F)c5)c4)s3)cnc2C1=O.[Na+]` yielded a solubility [7] of 20300 µg/mL, a remaining at 3 µM [8] of 88% and a remaining at 3 µM [9] of 84%. For the same molecule, the remaining at 3 µM [10] was 46%.

In the case of `CN1Cc2cc(-c3ccc(-c4cncc(NS(=O)(=O)c5ccc(F)cc5F)c4)s3)cnc2C1=O`, the viability at 24 h, 10 µM [2] is reported as 99.6%, the fraction unbound at 6 h, 10 µM [3] is reported as 0.0006 and the half-life [12] is reported as 6.8 h. The Cmax [13] was 860 µM, the AUC(0-inf) [14] was 10400 µM·h and the fraction unbound [15] was 0.456.

For `O=C1c2ccc(-c3ccc(-c4cncc(NS(=O)(=O)c5ccc(F)cc5F)c4)s3)cc2CN1CCCO`, the inhibition [1] was “inactive”.

`COc1ncc(-c2ccc(-c3cnc4c(c3)CN(C)C4=O)s2)cc1NS(=O)(=O)c1ccccc1[N+](=O)[O-]` showed a viability at 24 h, 10 µM [2] of 95.8%, a fraction unbound at 6 h, 10 µM [3] of 0.0009 and a half-life [20] of 1.6 h. It also gave a Cmax [21] of 637 µM and an AUC(0-inf) [22] of 2240 µM·h.

`COc1ncc(-c2ccc(-c3cnc4c(c3)CN(C)C4=O)s2)cc1[N-]S(=O)(=O)c1ccccc1[N+](=O)[O-].[Na+]` gave a solubility [7] of 4810 µg/mL, a remaining at 3 µM [8] of 95% and a remaining at 3 µM [9] of 80%. For the same molecule, the remaining at 3 µM [10] was 94% and the remaining at 24 h, 10 µM [11] was 100%.

`CN1Cc2cc(-c3ccc(-c4cncc([N-]S(=O)(=O)c5ccccc5C(F)(F)F)c4)s3)cnc2C1=O.[Na+]` showed a solubility [7] of 4280 µg/mL, a remaining at 3 µM [8] of 86% and a remaining at 3 µM [9] of 36%. The remaining at 3 µM [10] was 56%.

For `CN1Cc2cc(-c3ccc(-c4cncc(NS(=O)(=O)c5ccccc5C(F)(F)F)c4)s3)cnc2C1=O`, the viability at 24 h, 10 µM [2] was 100%.

For `CN1Cc2cc(-c3ccc(-c4cncc(NS(=O)(=O)c5cccc(C(F)(F)F)c5)c4)s3)cnc2C1=O` [listing 1 of 2 here], the inhibition [1] was 40%.

Work on `O=C1NCc2ncc(-c3ccc(-c4cncc([N-]S(=O)(=O)c5ccc(F)cc5F)c4)s3)cc21.[Na+]` yielded a solubility [7] of 3770 µg/mL, a remaining at 3 µM [8] of 83% and a remaining at 3 µM [9] of 100%. It also gave a remaining at 3 µM [10] of 95% and a remaining at 24 h, 10 µM [11] of 93%.

In the case of `O=C1c2ccc(-c3ccc(-c4cncc(NS(=O)(=O)c5ccc(F)cc5F)c4)s3)cc2CN1CCN1CCOCC1`, the inhibition [1] is reported as “inactive”.

In the case of `CN1CCN(CCN2Cc3cc(-c4ccc(-c5cncc(NS(=O)(=O)c6ccc(F)cc6F)c5)s4)ccc3C2=O)CC1`, the inhibition [1] is reported as “inactive”.

In the case of `COc1ncc(-c2ccc(-c3cnc4c(c3)CN(C)C4=O)s2)cc1[N-]S(=O)(=O)c1ccccc1C(F)(F)F.[Na+]`, the solubility [7] is reported as 7340 µg/mL, the remaining at 3 µM [8] is reported as 91% and the remaining at 3 µM [9] is reported as 50%. The remaining at 3 µM [10] was 63%.

For `O=C1NCc2cc(-c3ccc(-c4cncc([N-]S(=O)(=O)c5ccc(F)cc5F)c4)s3)cnc21.[Na+]`, the solubility [7] was 1130 µg/mL.

Work on `COc1ncc(-c2ccc(-c3cnc4c(c3)CN(C)C4=O)s2)cc1[N-]S(=O)(=O)c1ccc(F)cc1F.[Na+]` yielded a solubility [7] of 18300 µg/mL, a remaining at 3 µM [8] of 100% and a remaining at 3 µM [9] of 100%. It also gave a remaining at 3 µM [10] of 75% and a remaining at 24 h, 10 µM [11] of 100%.

With `CN1Cc2cc(-c3ccc(-c4cncc(NS(=O)(=O)c5cccc(C(F)(F)F)c5)c4)s3)cnc2C1=O` [listing 2 of 2 here] the viability at 24 h, 10 µM [2] was 97.8%.

`O=C1NCc2cc(-c3ccc(-c4cncc(NS(=O)(=O)c5ccc(F)cc5F)c4)s3)cnc21` showed a viability at 24 h, 10 µM [2] of 49%.

In the case of `O=C1c2ccc(-c3ccc(-c4cncc(NS(=O)(=O)c5ccc(F)cc5F)c4)s3)cc2CN1CCN1CCCCC1`, the inhibition [1] is reported as “inactive”.
